The values below come from article PMC6576746, “Rational discovery of dual-indication multi-target PDE/Kinase inhibitor for precision anti-cancer therapy using structural systems pharmacology” (PLoS Computational Biology, 2019).

Common to all, as to assay: biochemical
Common to all, as to set-up: DiscoverX KinomeScan competition binding assay across human kinases; per cent of control at 10 and 100 uM

The target in one assay is CHEK1 (Homo sapiens, UniProt O14757). To be noted: competition binding, % of control; read-out: Percent Control (100 uM Levosimendan). In outline:
(§1)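 KinomeScan competition binding was run across a human kinase panel at 10 μM and 100 μM levosimendan. Results are %control = (test − positive control)/(negative control − positive control) × 100.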

The target of the next assay is LTK (Homo sapiens, UniProt P29376). The settings on record: competition binding, % of control; read-out: Percent Control (100 uM Levosimendan). In outline:
as §1

The target in another assay is TLK2 (Homo sapiens, UniProt Q86UE8). The settings on record: competition binding, % of control; read-out: Percent Control (100 uM Levosimendan). In short, it runs like this:
as §1

Another assay has as its target LATS2 (Homo sapiens, UniProt Q9NRM7). To be noted: competition binding, % of control; read-out: Percent Control (100 uM Levosimendan). In outline: as §1
A further assay deals with SRMS (Homo sapiens, UniProt Q9H3Y6). The settings on record: competition binding, % of control; read-out: Percent Control (100 uM Levosimendan). In short, it runs like this:
as §1

A further assay addresses T1, PAK7 (Homo sapiens, UniProt Q9P286).
T1 construct: gene PAK5
The settings on record: competition binding, % of control; read-out: Percent Control (100 uM Levosimendan). In short, it runs like this: as §1

The target in another assay is RET (Homo sapiens, UniProt P07949). To be noted: competition binding, % of control; read-out: Percent Control (100 uM Levosimendan). In outline:
as §1

For a further assay, the target named is AXL (Homo sapiens, UniProt P30530). The settings on record: competition binding, % of control; read-out: Percent Control (100 uM Levosimendan). In outline: as §1
The next assay deals with STK39 (Homo sapiens, UniProt Q9UEW8). To be noted: competition binding, % of control; read-out: Percent Control (100 uM Levosimendan). In short, it runs like this: as §1
In assay [1] the target is T2, ABL1(Y253F)-phosphorylated (Homo sapiens, UniProt P00519, Y253F).
T2 construct: phosphorylated
The settings on record: competition binding, % of control; read-out: Percent Control (100 uM Levosimendan). In outline: as §1

The target in another assay is PIK3CG (Homo sapiens, UniProt P48736). The settings on record: competition binding, % of control; read-out: Percent Control (100 uM Levosimendan). In short, it runs like this:
as §1

For the next assay, the target named is PLK2 (Homo sapiens, UniProt Q9NYY3). The settings on record: competition binding, % of control; read-out: Percent Control (100 uM Levosimendan). In short, it runs like this: as §1
The target in a further assay is T3, CDK4-cyclinD3 (Homo sapiens, UniProt P11802).
T3 construct: cyclinD3
To be noted: competition binding, % of control; read-out: Percent Control (100 uM Levosimendan). In outline: as §1

The next assay concerns the target T4, MST1 (Homo sapiens, UniProt Q13043).
T4 construct: gene STK4
The settings on record: competition binding, % of control; read-out: Percent Control (100 uM Levosimendan). In outline: as §1

For the next assay, the target named is SRPK3 (Homo sapiens, UniProt Q9UPE1). To be noted: competition binding, % of control; read-out: Percent Control (100 uM Levosimendan). In short, it runs like this:
as §1

Another assay addresses PRKCD (Homo sapiens, UniProt Q05655). The settings on record: competition binding, % of control. In short, it runs like this:
as §1

For another assay, the target named is NLK (Homo sapiens, UniProt Q9UBE8). To be noted: competition binding, % of control; read-out: Percent Control (100 uM Levosimendan). In short, it runs like this: as §1
The target in another assay is ZAP70 (Homo sapiens, UniProt P43403). To be noted: competition binding, % of control; read-out: Percent Control (100 uM Levosimendan). In short, it runs like this:
as §1

Assay [2] concerns the target T5, ABL1(M351T)-phosphorylated (Homo sapiens, UniProt P00519, M351T).
T5 construct: phosphorylated
The settings on record: competition binding, % of control; read-out: Percent Control (100 uM Levosimendan). In outline: as §1

Sequence of PRKCD (Q05655 whole entry): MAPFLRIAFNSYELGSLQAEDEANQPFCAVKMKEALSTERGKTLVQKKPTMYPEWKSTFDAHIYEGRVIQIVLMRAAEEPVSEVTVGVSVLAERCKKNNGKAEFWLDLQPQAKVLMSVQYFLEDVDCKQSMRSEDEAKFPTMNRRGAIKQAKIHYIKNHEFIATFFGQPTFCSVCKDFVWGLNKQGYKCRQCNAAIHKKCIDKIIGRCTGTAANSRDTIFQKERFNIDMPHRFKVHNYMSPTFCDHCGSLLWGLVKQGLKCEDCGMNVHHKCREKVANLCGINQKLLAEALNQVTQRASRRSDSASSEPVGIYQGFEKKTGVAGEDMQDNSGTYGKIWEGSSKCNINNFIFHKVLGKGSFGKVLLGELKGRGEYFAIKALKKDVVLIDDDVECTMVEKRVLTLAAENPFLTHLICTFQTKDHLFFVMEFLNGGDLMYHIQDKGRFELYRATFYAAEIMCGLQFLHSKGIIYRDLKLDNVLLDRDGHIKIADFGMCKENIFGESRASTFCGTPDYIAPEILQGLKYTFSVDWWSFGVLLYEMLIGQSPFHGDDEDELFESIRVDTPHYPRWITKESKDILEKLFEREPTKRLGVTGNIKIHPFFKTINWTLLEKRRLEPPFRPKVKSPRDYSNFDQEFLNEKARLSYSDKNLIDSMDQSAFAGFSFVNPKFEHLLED
T3 sequence (P11802 whole entry): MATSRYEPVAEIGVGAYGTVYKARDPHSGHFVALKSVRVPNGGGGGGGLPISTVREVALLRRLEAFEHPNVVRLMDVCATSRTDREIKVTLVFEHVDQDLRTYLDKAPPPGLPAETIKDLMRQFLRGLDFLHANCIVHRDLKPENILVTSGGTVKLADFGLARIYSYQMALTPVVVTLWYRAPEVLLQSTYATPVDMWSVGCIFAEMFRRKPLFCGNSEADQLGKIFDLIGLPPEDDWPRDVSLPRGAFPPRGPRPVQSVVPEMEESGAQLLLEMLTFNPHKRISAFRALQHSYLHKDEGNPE
T3 sequence (P30281 whole entry partner): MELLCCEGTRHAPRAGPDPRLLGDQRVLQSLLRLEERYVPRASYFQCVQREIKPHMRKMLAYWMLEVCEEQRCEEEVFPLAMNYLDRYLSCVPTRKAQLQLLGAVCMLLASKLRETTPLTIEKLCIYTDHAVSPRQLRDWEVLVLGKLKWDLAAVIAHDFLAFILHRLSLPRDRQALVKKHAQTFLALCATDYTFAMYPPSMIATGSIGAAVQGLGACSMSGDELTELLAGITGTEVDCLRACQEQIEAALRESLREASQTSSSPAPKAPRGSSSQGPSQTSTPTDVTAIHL
Sequence of CHEK1 (O14757 whole entry): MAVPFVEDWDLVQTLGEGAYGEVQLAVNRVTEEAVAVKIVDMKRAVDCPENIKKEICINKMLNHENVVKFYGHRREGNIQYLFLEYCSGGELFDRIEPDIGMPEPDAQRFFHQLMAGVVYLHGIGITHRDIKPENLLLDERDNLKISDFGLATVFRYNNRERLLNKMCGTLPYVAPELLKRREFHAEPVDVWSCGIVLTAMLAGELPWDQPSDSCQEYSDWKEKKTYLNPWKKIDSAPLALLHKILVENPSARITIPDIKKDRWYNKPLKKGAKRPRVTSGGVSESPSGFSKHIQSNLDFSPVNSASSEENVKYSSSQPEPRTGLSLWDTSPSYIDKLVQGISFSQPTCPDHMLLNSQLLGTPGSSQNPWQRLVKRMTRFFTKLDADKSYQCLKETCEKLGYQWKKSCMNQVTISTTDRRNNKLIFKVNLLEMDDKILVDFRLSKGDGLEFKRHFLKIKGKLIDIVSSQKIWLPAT
Sequence of LTK (P29376 whole entry): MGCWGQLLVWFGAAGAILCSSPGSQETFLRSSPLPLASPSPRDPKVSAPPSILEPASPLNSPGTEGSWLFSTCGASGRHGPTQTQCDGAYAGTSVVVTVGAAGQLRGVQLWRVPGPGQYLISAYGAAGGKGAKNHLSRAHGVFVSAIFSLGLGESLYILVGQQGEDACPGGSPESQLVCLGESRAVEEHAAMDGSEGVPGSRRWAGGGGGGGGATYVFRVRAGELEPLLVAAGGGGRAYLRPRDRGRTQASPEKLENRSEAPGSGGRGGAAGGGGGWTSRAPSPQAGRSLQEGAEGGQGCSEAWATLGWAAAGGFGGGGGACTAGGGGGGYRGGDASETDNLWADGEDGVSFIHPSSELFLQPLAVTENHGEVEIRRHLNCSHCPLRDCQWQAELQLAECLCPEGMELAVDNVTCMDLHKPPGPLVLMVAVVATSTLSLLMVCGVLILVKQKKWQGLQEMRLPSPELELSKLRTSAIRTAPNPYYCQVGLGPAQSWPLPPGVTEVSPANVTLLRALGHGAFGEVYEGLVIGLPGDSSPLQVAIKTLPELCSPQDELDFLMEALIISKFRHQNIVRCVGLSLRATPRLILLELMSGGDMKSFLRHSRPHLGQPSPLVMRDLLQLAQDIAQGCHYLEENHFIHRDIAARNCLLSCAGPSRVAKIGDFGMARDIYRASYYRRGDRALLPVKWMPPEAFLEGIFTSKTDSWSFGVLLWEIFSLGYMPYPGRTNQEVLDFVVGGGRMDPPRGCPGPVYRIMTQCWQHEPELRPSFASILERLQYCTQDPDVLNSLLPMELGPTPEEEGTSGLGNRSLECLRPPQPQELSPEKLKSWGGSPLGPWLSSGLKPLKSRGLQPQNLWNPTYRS
Sequence of ZAP70 (P43403 whole entry): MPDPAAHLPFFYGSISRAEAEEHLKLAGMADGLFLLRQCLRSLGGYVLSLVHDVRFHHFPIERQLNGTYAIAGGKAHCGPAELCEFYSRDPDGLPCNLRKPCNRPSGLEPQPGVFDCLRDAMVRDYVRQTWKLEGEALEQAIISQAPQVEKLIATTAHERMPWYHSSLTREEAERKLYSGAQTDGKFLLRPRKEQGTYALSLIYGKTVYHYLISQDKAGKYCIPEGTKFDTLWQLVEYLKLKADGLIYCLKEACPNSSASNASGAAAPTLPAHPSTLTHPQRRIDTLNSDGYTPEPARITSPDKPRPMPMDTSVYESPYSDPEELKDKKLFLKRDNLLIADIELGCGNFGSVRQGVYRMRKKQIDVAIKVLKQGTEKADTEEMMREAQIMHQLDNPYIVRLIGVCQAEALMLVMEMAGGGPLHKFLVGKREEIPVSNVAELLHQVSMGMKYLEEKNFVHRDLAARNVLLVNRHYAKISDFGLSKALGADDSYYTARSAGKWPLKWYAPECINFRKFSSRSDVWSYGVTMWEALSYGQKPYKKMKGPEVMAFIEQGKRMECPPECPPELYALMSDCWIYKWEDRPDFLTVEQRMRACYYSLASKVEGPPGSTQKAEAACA
Sequence of RET (P07949 whole entry): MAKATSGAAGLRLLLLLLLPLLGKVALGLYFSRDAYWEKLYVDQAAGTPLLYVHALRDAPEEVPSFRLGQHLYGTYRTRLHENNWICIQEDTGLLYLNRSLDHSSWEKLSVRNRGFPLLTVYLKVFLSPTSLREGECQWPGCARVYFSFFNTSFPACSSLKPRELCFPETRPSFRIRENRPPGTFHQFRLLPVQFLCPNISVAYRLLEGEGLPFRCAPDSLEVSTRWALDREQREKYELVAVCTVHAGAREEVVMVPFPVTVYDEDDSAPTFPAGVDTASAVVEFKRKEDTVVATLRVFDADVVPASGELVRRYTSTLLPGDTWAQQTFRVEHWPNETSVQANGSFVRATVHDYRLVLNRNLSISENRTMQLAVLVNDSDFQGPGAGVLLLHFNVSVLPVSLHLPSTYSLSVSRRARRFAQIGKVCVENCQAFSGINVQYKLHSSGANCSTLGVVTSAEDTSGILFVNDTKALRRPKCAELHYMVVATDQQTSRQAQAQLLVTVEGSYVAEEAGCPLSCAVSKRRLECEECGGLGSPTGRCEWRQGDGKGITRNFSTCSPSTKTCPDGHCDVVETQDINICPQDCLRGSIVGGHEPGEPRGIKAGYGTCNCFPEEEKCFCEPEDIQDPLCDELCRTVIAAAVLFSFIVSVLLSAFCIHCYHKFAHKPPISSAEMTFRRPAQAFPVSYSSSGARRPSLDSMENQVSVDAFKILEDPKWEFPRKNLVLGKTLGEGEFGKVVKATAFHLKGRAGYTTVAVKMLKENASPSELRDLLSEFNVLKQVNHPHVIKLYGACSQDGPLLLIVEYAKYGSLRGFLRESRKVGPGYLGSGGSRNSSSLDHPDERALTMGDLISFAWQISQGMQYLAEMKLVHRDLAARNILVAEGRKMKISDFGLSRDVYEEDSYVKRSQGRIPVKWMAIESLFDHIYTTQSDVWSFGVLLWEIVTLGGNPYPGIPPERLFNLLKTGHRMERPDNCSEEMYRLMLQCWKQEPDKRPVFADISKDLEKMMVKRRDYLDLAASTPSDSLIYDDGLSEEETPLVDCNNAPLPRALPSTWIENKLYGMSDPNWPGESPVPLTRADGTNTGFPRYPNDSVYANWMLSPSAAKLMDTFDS
Sequence of PLK2 (Q9NYY3 whole entry): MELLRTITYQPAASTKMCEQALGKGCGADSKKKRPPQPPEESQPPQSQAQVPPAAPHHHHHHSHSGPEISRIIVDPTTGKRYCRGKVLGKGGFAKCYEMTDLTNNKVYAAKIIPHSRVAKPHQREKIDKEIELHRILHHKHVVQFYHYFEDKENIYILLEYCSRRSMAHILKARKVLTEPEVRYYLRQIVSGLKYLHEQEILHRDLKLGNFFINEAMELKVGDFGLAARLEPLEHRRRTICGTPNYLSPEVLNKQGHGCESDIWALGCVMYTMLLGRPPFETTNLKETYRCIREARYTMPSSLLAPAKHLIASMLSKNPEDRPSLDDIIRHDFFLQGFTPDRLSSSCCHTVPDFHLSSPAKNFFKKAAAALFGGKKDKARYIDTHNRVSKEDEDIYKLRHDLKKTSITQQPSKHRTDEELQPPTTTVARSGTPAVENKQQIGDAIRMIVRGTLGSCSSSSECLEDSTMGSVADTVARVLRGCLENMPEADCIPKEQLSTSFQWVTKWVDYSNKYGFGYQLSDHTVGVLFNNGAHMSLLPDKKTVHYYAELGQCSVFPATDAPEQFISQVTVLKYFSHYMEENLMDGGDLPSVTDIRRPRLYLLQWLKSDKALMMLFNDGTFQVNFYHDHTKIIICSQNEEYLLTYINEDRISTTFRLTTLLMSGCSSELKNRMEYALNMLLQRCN

Turning to `C[C@@H]1CC(=O)NN=C1c1ccc(NN=C(C#N)C#N)cc1` [levosimendan], the remaining binding at 100 µM on CHEK1 is 85%; on LTK it was 96%; on TLK2, 97%; on LATS2, 100%; at SRMS, 100%; on PAK7, 79%. The remaining binding at 100 µM turned out to be 88% on RET; 83% on AXL; 100% on STK39; 87% in [1]; 80% on PIK3CG; 72% at PLK2. The remaining binding at 100 µM stood at 100% at CDK4-cyclinD3; 75% on MST1; 63% at SRPK3; 48% at PRKCD (read-out: Percent Control (100 uM Levosimendan)); 100% at NLK; 74% on ZAP70. Besides, the remaining binding at 100 µM in [2] was determined as 79%. Besides, the remaining binding at 10 µM at PRKCD (read-out: Percent Control (10 uM Levosimendan)) worked out at 93%.
